The IC50 is the concentration needed to halve the response being measured. The term Ki denotes a dissociation constant, usually derived from enzyme kinetics or from competition with a known ligand.

One data set has as its system B16F10 melanoma cells. As to the kind of experiment: Melanin content assay in B16F10 cells. Conditions: arbutin 0.2 mM, 48 h, 405 nm. It counts as cell-based, mouse. On the procedure: In order to assess melanin content, culture flasks were used to grow B16F10 cells (1 × 10^5 cells/flask) for 24 h. […] Cell harvesting was conducted by trypsinization and the cells were then rinsed twice in cold PBS. The cell pellets were then dissolved in 0.3 mL of 1 N NaOH to produce solutions which were heated to 90 °C for a one-hour period. The lysates were then placed in a centrifuge for 10 min at 3,000 × g whereupon a microplate reader was used to assess the melanin quantity at 405 nm. The protein content in the supernatant was evaluated using the Bradford protein assay with the findings presented in the form of a percentage of the control. Arbutin (0.2 mM) served as the positive control. Each trial was carried out in triplicate, with results presented in the form of mean ± standard deviation.

The test system of the next data set is TYR. Conditions: cited from earlier work. The text has this: TIPs are now widely prepared via enzymatic hydrolysis, due to the ease of controlling the process and the absence of extreme reaction conditions. There are many commercially produced enzymes which are available to support TIP production, among which are trypsin, chymotrypsin, flavourzyme, alkaline protease, neutral protease, papain, and so forth. It is understood that different enzymes can differ in their hydrolytic impact upon a given material because the binding specificity between substrate and enzymes will vary. […] Further fractionation of the MW < 0.65 kDa ultrafiltrated fraction can be carried out by SEC using a Superdex 30 Increase column with a separation range of 100-7,000 Da. […] Where hydrophobic amino acids appear at each end of the peptide chain, this increases the interactivity with the copper active sites of TYR. Furthermore, it was reported by Wang et al.[33]. that a low-molecular-weight (700-1,700 Da) gelatin hydrolysate derived from the sea cucumber wall offered 55.7% hydrophobic amino acids. While the exterior environme ... || (+ 2 further places)

A further data set has as its system zebrafish embryos. Kind of data set: Melanin inhibitory assay in zebrafish embryos. The class given is in vivo. As to conditions: PTU 0.0015%, vs control. The procedure: To perform the test of acute toxicity, a total of 20 fertilized zebrafish embryos were collected at around 4 h after fertilization and added to each well in a 12-well plate. These embryos then underwent treatment using different quantities of […] (2, 4, 6, 8, and 10 µM), while the negative control was distilled water and the positive control was 3,4-dichloroaniline. Incubation of the plate then took place until 48 h after fertilization at a temperature of 28.5 ± 1 °C. The test solutions were refreshed at 24 h after fertilization to allow the counting and removal of any dead embryos. Following exposure, a stereomicroscope (SZX16, Olympus, Japan) was used to record the embryo morphological effects. Meanwhile, a slightly modified version of a previously described melanin inhibitory assay was carried out[30]. The embryos were then homogenized using a cold lysis buffer (PBS pH 7.4, 1% Triton-X and 1% DMSF). The lysate then underwent 10 min of sonication before being placed in a centrifuge for 5 min at 10,000×g. The pellet was then removed from the centrifuge and dissolved in 200 µL of 1 N NaOH for 1 h at a temperature of 85 °C. This sample was subsequently vortexed and placed in the centrifuge for a further 5 min at 10,000×g. A microplate reader (Spectramax M5, Molecular Devices, USA) was then employed to determine the supernatant absorbance at 490 nm. Melanin content levels could then by calibrated by using the protein amount, and were reported in the form of a percentage compared to the untreated control. In the melanin inhibitory assay, the positive control used was phenylthiourea (PTU) solution (0.0015%).

The test system of another data set is skin. As to conditions: treatment of hyperpigmentation; cited from earlier work. The text has this:
In producing cosmetic products and functional foods, safety is of the highest priority during the formulation process.

For the next data set, the system named is mushroom TYR. The arrangement: method as in PMID 19440221. Conditions: cited from earlier work. The text has this: Abu Ubeid et al.[51]. conducted the screening of an internal library to identify the active oligopeptides capable of inhibiting TYR in mushrooms.
In the next data set the test system is TYR (mono-phenolase). Conditions: cited from earlier work. The text has this:
In order to check our own hypothesis concerning the ability of the peptide VY-9 to inhibit TYR, we created a synthetic peptide with a matching sequence to test the inhibition in the case of both mono-phenolase and di-phenolase forms. […] Ge et al.[34]. noting that hydrophobic interactions with hydrophobic side chains located at the active sites of TYR could be increased by inhibitors which have aromatic ring structures. […] For instance, Schurink et al.[38]. performed the screening of seven different peptides offering TYR inhibition from protein ... || In order to understand the VY-9 peptide mechanism for TYR inhibition, the inhibition mode was investigated through the analysis of Lineweaver-Burk plots. The plots can be seen in Fig. 3a-d, where four lines of differing gradients meet at the same intersection point for the vertical coordinate at varying concentrations of the VY-9 peptide.

The test system of a further data set is TYR (di-phenolase). As to conditions: cited from earlier work. The text has this:
In order to check our own hypothesis concerning the ability of the peptide VY-9 to inhibit TYR, we created a synthetic peptide with a matching sequence to test the inhibition in the case of both mono-phenolase and di-phenolase forms. […] The plots can be seen in Fig. 3a-d, where four lines of differing gradients meet at the same intersection point for the vertical coordinate at varying concentrations of the VY-9 peptide.

The next data set has as its system human TYR. The arrangement: method as in PMID 19440221. As to conditions: cited from earlier work.
Another data set deals with human melanocytes. The arrangement: method as in PMID 19440221. Conditions: 100 µM, seven days; cited from earlier work.
For data set [1] the following is noted: presence of water or oxygen; cited from earlier work. The text has this: (§1) One role of TYR, which is a binuclear copper enzyme, is to regulate melanogenesis. It acts as a catalyst for the hydroxylation of tyrosine and the oxidation of 3, 4-dihydroxyphenylalanine (L-DOPA) to o-dopaquinone which are the rate limiting reactions which occur during the synthesis of melanin. Skin color is dependent upon the level of melanin synthesis as well as the type of melanin and the way it is distributed through the keratinocytes. Achieving effective inhibition of TYR with minimal adverse side effects has remained a longstanding challenge within the realms of dermatological and cosme ...

The test system of the next data set is cells. Conditions: cited from earlier work.
From the text: as §1

The next data set deals with melanoma cells. Conditions: 500 µM; cited from earlier work.
Another data set concerns A375 melanoma cells. Conditions: 0.5-1 mM; cited from earlier work.

For the molecule `OC[C@H]1O[C@@H](Oc2ccc(O)cc2)[C@H](O)[C@@H](O)[C@@H]1O` [arbutin, reference compound], the “reduction in melanin content” value in the data set on B16F10 melanoma cells amounted to 54.34%. Regarding “GYSLGNWVCAAK [obtained from egg white protein]”, the inhibition type entry in the data set with TYR is on record as “competitively inhibit TYR”. Take `NC(=S)Nc1ccccc1` [PTU, phenylthiourea, reference compound]: in the data set on zebrafish embryos, the melanin content entry is given as “differed significantly (p < 0.01) to the control”. For `Oc1ccc(O)cc1` [hydroquinone], the undesirable side effects entry in the data set with skin was “contact dermatitis, irritation of the skin, and exogenous ochronosis”. In the data set on mushroom TYR, the IC50 is 680 µM. On to “KFEKKFEK [oligopeptide of an internal library]”, for which the IC50 in the data set with mushroom TYR is 3600 µM. “HPTSEVY [CT-3, rice bran protein hydrolysate peptide]”: the “TYR inhibition, mono-phenolase tyrosine substrate reaction” value with TYR (mono-phenolase) is listed as “notable TYR inhibition”. The “TYR inhibition, di-phenolase L-DOPA substrate reaction” value with TYR (di-phenolase) is “did not do so in the di-phenolase L-DOPA substrate reaction”. Take “YRSRKYSSWY [P4, peptide from an earlier study]”: in the data set with human TYR, the “human TYR inhibition vs hydroquinone” value is given as “to a greater extent than was the case with hydroquinone”. Also, in the data set with mushroom TYR, the half-inhibitory concentration (IC50) is 40 µM. In the data set with human melanocytes, the “reduction in melanin content” value is on record as 43%. With `O=S(O)O` [sulfite], the stability result in data set [1] is given as “instability in the presence of water or oxygen”. In addition, the toxicity towards cells result with cells was “high degree of toxicity towards cells”. For “LQPSHY [CT-2, rice bran protein hydrolysate peptide]”, the “TYR inhibition, mono-phenolase tyrosine substrate reaction” value in the data set on TYR (mono-phenolase) is given as “notable TYR inhibition”. Besides, the “TYR inhibition, di-phenolase L-DOPA substrate reaction” value with TYR (di-phenolase) is given as “did not do so in the di-phenolase L-DOPA substrate reaction”. In the data set with melanoma cells, the cytotoxic effects entry is recorded as “no cytotoxic effects were recorded” and the melanogenesis inhibition is recorded as > 50%. IQSPHFF [from Phage Display Library]: the Ki on TYR (di-phenolase) (competitive) is 765 µM. Also, the inhibition type entry in the data set with TYR (di-phenolase) (di-phenolase) is recorded as “competitive inhibitor”.

Regarding MRSRERSSWY [TH10], on TYR (mono-phenolase) (read-out: IC50 (tyrosine substrate of TYR)), the IC50 is 102 µM. For “HGGEGGRPY [CT-1, rice bran protein hydrolysate peptide]”, the “TYR inhibition, mono-phenolase tyrosine substrate reaction” value in the data set with TYR (mono-phenolase) was “notable TYR inhibition”. Further, the “TYR inhibition, di-phenolase L-DOPA substrate reaction” value with TYR (di-phenolase) was “did not do so in the di-phenolase L-DOPA substrate reaction”. On to `O=c1cc(CO)occ1O` [kojic acid], for which the stability result in data set [1] was “instability in the presence of water or oxygen”. The toxicity towards cells result with cells is given as “high degree of toxicity towards cells”. Take ECGYF: the “TYR inhibition vs arbutin and glutathione” value with TYR was “exceeded those of arbutin and glutathione”. For the same molecule, the IC50 with TYR (read-out: TYR inhibition IC50) was 460 µM. Further, the “melanin level in A375 cells” value in the data set on A375 melanoma cells is on record as “able to lower the melanin levels in cultured A375 melanoma cells more effectively than arbutin or glutathione”. For the molecule “RADSRADC [oligopeptide of an internal library]”, in the data set with human TYR, the “human TYR inhibition vs hydroquinone” value was “to a greater extent than was the case with hydroquinone”. The IC50 in the data set with mushroom TYR was 123 µM. Further, in the data set on human melanocytes, the “reduction in melanin content” value is recorded as 27%.

On to TIPPPT, for which the “IC50 against TYR” value with TYR is 7590 µg/mL. Consider “SFLLRN [oligopeptide of an internal library]”, for which the half-inhibitory concentration (IC50) with mushroom TYR is 8000 µM. As to ILFTLL, the “IC50 against TYR” value in the data set on TYR is 9250 µg/mL. For the molecule IIPFIF, the “IC50 against TYR” value with TYR was 6160 µg/mL.

(Values after PMC11681159, “Bee pollen peptides as potent tyrosinase inhibitors with anti-melanogenesis effects in murine b16f10 melanoma cells and zebrafish embryos” (Scientific Reports, 2024).)
